{
  "source": "patent US20230293519A1",
  "about": "“INTEGRIN INHIBITORS AND USES THEREOF IN COMBINATION WITH OTHER AGENTS” (Pliant Therapeutics, Inc., priority 2021, published 2023)",
  "key": {"COL1A1 expression": {"tested_on": "COL1A1 expression", "assay": "PCLS from human IPF lung tissue, 7 days: COL1A1 expression", "type": "cell-based", "experimental": "PCLS from 5-7 idopathic pulmonary fibrosis (IPF) lung tissue samples were cultured for seven days with one of: DMSO; Compound 5 at 200 nM; nintedanib at 75 nM; pirfenidone at 50 µm; a combination of Compound 5 at 200 nM and nintedanib at 75 nM; a combination of Compound 5 at 200 nM and pirfenidone at 50 µm; or an Alk5 inhibitor at 1 µm. […] FIG. 6D is a bar graph showing relative expression of COL1A1 in precision cut lung slices (PCLS) from idopathic pulmonary fibrosis (IPF) lung tissue upon exposure to Comopund 5, clinical standard of care compounds nintedanib (Nin) and pirfenidone (Pirf), and an ALK5 inhibitor, all versus DMSO control.\nPCLS from a single IPF lung tissue sample were cultured for seven days with Compound 5 at concentrations of 200 pM, 2 nM, 60 nM, 200 nM, and 1 µM, along with 0.1% DMSO control and an Alk5 inhibitor at 1 µM. […] COL1A1 expression is also graphed for the PCLS in the presence of 0.1% DMSO control, and an Alk5 inhibitor at 1 µM."}, "lung Col1a1 expression": {"tested_on": "lung Col1a1 expression", "assay": "Precision cut lung slices of mice under chronic bleomycin exposure (single vs dual integrin inhibition)", "type": "cell-based, mouse", "settings": "slices cultured 7 days", "experimental": "Mice (C57BL/6) were administered 3 U/kg of bleomycin (Teva Pharmaceuticals; North Wales, PA) on Day 0 and 1 U/kg of bleomycin on days 14, 28, 42 and 56 via oropharyngeal aspiration while under anesthesia. At day 70, 14 days after the final bleomycin insult, precision cut lung slices were obtained. Following euthanization, 2% low gelling temp agarose was injected into the mouse lungs via the trachea. […] The lobes were then subjected to precision slicing to obtain samples for culture using a microtome (Compresstome VF-300-0Z, Precisionary; Greenville, NC). Individual slices were distributed in a multiwell culture plate and cultured for 7 days under control (DMSO) and test compound conditions. […]\nDuring the culture period, slices in the control group were treated with DMSO and slices in the test group were treated with a DMSO solution of one of: the selective antibody αvβ6 inhibitor 3G9; the αvβ1-selective small molecule inhibitor; a combination of the selective antibody αvβ6 inhibitor 3G9 and the αvβ1-selective small molecule inhibitor; compound 5; and the small molecule ALK5 inhibitor. The selective αvβ1 and αvβ6 integrin inhibitors were analyzed at ≥ their respective IC90 concentrations for inhibition of TGF-beta activation. […] The small molecule ALK5 inhibitor was analyzed at 10x its reported IC50 value."}, "SMAD3 phosphorylation": {"tested_on": "SMAD3 phosphorylation", "assay": "pSMAD3/SMAD3 in lung tissue and BALF of healthy mice", "type": "in vivo, mouse", "settings": "4 days of treatment, dose dependent"}, "αvβ6": {"target": "αvβ6 (Homo sapiens (Human), UniProt P06756+P18564)", "sequence (P06756 31-889)": "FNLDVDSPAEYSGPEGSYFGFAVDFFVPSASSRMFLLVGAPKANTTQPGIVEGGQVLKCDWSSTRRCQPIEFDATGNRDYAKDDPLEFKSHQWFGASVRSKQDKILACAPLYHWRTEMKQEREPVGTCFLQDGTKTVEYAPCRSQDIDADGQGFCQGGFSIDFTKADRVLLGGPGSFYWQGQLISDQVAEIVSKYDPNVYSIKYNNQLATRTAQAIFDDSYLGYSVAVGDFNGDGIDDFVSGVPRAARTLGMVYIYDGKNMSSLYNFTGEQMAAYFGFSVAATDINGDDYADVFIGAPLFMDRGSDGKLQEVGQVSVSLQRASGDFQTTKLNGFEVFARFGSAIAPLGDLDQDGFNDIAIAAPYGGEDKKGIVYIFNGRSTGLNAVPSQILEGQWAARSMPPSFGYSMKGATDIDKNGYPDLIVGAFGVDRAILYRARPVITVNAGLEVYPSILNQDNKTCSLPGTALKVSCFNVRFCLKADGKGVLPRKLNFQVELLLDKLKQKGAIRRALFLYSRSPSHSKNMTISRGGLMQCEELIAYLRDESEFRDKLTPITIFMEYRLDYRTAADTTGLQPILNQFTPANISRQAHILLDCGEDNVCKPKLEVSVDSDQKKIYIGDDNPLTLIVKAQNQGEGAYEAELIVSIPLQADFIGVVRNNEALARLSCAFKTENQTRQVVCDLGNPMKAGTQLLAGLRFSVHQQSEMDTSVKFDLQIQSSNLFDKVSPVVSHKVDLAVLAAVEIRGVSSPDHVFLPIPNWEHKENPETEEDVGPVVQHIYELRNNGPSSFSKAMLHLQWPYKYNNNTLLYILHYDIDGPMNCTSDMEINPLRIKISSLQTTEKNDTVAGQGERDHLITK", "sequence (P06756 890-1048 partner)": "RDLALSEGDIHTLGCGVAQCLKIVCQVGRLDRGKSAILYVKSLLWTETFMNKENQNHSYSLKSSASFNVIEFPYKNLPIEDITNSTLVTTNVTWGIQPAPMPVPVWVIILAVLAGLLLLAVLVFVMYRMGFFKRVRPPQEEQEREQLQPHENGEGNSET", "sequence (P18564 22-788)": "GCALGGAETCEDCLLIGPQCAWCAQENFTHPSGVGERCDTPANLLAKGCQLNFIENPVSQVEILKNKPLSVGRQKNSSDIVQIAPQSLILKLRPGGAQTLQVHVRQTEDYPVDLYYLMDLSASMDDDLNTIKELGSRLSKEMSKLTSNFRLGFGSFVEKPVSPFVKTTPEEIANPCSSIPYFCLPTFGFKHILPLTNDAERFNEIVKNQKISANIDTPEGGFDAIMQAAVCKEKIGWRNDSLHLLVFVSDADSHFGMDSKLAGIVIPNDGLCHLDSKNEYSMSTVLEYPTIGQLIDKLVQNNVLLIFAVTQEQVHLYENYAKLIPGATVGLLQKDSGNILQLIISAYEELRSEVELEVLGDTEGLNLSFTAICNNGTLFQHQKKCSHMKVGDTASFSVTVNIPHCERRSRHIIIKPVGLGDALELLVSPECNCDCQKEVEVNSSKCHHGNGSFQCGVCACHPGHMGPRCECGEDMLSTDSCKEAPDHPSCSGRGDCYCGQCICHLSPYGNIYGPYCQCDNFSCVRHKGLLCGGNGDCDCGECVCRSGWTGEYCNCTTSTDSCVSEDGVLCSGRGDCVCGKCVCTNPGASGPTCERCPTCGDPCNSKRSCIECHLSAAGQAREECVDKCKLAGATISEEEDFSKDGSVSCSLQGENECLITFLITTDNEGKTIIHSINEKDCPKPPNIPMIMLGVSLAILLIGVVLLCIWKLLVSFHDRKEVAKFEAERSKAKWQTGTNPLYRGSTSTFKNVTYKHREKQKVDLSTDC", "assay": "[18F]FP-R01-MG-F2 PET/CT target engagement in participants with IPF", "type": "in vivo", "experimental": "The aim of this Example is to assess target engagement of the disclosed compounds to αvβ6 in human participants with IPF using [^18F]FP-R01-MG-F2 PET/computerized tomography (CT) imaging.\n(§1) This Example was conducted as an open-label, single-dose (60 mg, 120 mg, 240 mg or 320 mg) clinical trial evaluating αvβ6 receptor occupancy in the lungs, safety, and pharmacokinetics of Compound #5 in subjects with IPF. To date, 4 participants have completed the study. Each of these 4 participants was undergoing a pre-existing course of therapy using one of the SoC (Standard of Care) compounds, nintedanib. These participants continued their pre-existing nintedanib therapy throughout this study. Knottin tracer uptake kinetics were compared pre- and post-dose of the disclosed compound, as measured by standardized uptake values (SUVs) and parameters estimated from kinetic modeling in regions-of-interest on dynamic [^18F]FP-R01-MG-F2 PET/CT scans. […] Receptor occupancy was estimated from the output of the two-compartment model (VT, the […]) using standard equations and fitting algorithms, and corrections for VND (non-displaceable tracer binding). For example, in FIG. 10, the data points, shown as circles, are modeled by the following formula: […]\nFive subjects with IPF were enrolled: Subject A received a single dose of 60 mg of the disclosed compound followed by a post-dose scan. Subject B received two doses of the disclosed compound separated by two weeks, 120 mg and 240 mg, each followed by a post-dose scan. Subject C received two doses of the disclosed compound separated by two weeks, 240 mg and 320 mg, each followed by a post-dose scan. Subject D received a single dose of 320 mg of the disclosed compound followed by a post-dose scan."}, "[1]": {"assay": "Unbound plasma concentration in the PET/CT study", "type": "in vivo", "settings": "human", "experimental": "as §1\nFIG. 9 is a graph of unbound plasma concentration (X-axis) vs Vt (Y-axis) for the baseline Vt at each dose, the measured Vt after each dose, and a fit line. FIG. 10 is a graph of unbound plasma concentration (X-axis) vs % receptor occupancy (Y-axis). FIG. 11 is a bar chart showing % target engagement for each subject and dose."}},
  "data": [
    {"molecule": "COCCN(CCCCc1ccc2c(n1)NCCC2)CC[C@H](Nc1ncnc2ccccc12)C(=O)O", "note": "[Compound 5, (S)-4-((2-methoxyethyl)(4-(5,6,7,8-tetrahydro-1,8-naphthyridin-2-yl)butyl)amino)-2-(quinazolin-4-ylamino)butanoic acid]", "values": [
      {"measurement": "reduction of COL1A1 expression", "setting": "COL1A1 expression; Compound 5 200 nM, nintedanib 75 nM, pirfenidone 50 µM, 5-7 IPF lungs", "value": 43, "unit": "%"},
      {"measurement": "concentration with significant reduction of COL1A1 expression", "setting": "COL1A1 expression; single IPF lung, 200 pM to 1 µM tested", "value": "≥ 2", "unit": "nM"},
      {"measurement": "reduction in COL1A1 expression at concentrations with significant effect", "setting": "COL1A1 expression; single IPF lung, Compound 5 ≥ 2 nM", "value": "≥ 47", "unit": "%"},
      {"measurement": "lung Col1a1 expression vs DMSO control", "setting": "lung Col1a1 expression", "value": "decreased lung Col1a1 expression substantially"},
      {"measurement": "SMAD3 phosphorylation (pSMAD3/SMAD3) in cells isolated from BALF, % of the untreated levels", "setting": "SMAD3 phosphorylation", "value": "approximately 50%"},
      {"measurement": "SMAD3 phosphorylation (pSMAD3/SMAD3) in lung tissue, % of the untreated levels", "setting": "SMAD3 phosphorylation", "value": "approximately 50%"},
      {"measurement": "decrease in volume of distribution of the knottin radiotracer in the lungs", "setting": "αvβ6; 60 mg dose", "value": "approximately 50%"},
      {"measurement": "decrease in volume of distribution of the knottin radiotracer in the lungs", "setting": "αvβ6; 240 and 320 mg doses", "value": "greater than 95%"},
      {"measurement": "%DeltaVt", "setting": "αvβ6; Subject A00, 60 mg single dose", "value": 52.23, "unit": "%"},
      {"measurement": "Vs (Vt corrected for non-displaceable binding, VND=0.66)", "setting": "αvβ6; Subject A00, 60 mg single dose", "value": 1.18},
      {"measurement": "Vt (post-dose)", "setting": "αvβ6; Subject A00, 60 mg single dose", "value": 1.84},
      {"measurement": "%DeltaVt", "setting": "αvβ6; Subject B120, 120 mg", "value": 58.76, "unit": "%"},
      {"measurement": "Vs (Vt corrected for non-displaceable binding, VND=0.66)", "setting": "αvβ6; Subject B120, 120 mg", "value": 0.99},
      {"measurement": "Vt (post-dose)", "setting": "αvβ6; Subject B120, 120 mg", "value": 1.65},
      {"measurement": "%DeltaVt", "setting": "αvβ6; Subject B240, 240 mg", "value": 97.56, "unit": "%"},
      {"measurement": "Vs (Vt corrected for non-displaceable binding, VND=0.66)", "setting": "αvβ6; Subject B240, 240 mg", "value": 0.06},
      {"measurement": "Vt (post-dose)", "setting": "αvβ6; Subject B240, 240 mg", "value": 0.72},
      {"measurement": "%DeltaVt", "setting": "αvβ6; Subject C240, 240 mg", "value": 70.91, "unit": "%"},
      {"measurement": "Vs (Vt corrected for non-displaceable binding, VND=0.66)", "setting": "αvβ6; Subject C240, 240 mg", "value": 0.32},
      {"measurement": "Vt (post-dose)", "setting": "αvβ6; Subject C240, 240 mg", "value": 0.98},
      {"measurement": "%DeltaVt", "setting": "αvβ6; Subject C320, 320 mg", "value": 82.73, "unit": "%"},
      {"measurement": "Vs (Vt corrected for non-displaceable binding, VND=0.66)", "setting": "αvβ6; Subject C320, 320 mg", "value": 0.19},
      {"measurement": "Vt (post-dose)", "setting": "αvβ6; Subject C320, 320 mg", "value": 0.85},
      {"measurement": "%DeltaVt", "setting": "αvβ6; Subject D320, 320 mg", "value": 93.57, "unit": "%"},
      {"measurement": "Vs (Vt corrected for non-displaceable binding, VND=0.66)", "setting": "αvβ6; Subject D320, 320 mg", "value": 0.09},
      {"measurement": "Vt (post-dose)", "setting": "αvβ6; Subject D320, 320 mg", "value": 0.75},
      {"measurement": "αvβ6 receptor occupancy", "setting": "αvβ6; lungs of IPF participants", "value": "about 100%"},
      {"measurement": "concentration at which the exposure response saturates", "setting": "αvβ6; measured drug exposure at 4 hours", "value": "about 100 nM"},
      {"measurement": "concentration at 4 h", "setting": "[1]; 60 mg, Subject A00, 60 mg single dose", "value": 3.66, "unit": "nM"},
      {"measurement": "concentration at 4 h", "setting": "[1]; 120 mg, Subject B120, 120 mg", "value": 10, "unit": "nM"},
      {"measurement": "concentration at 4 h", "setting": "[1]; 240 mg, Subject B240, 240 mg", "value": 58.3, "unit": "nM"},
      {"measurement": "concentration at 4 h", "setting": "[1]; 240 mg, Subject C240, 240 mg", "value": 103, "unit": "nM"},
      {"measurement": "concentration at 4 h", "setting": "[1]; 320 mg, Subject D320, 320 mg", "value": 33.6, "unit": "nM"},
      {"measurement": "concentration at 4 h", "setting": "[1]; Subject C320, 320 mg", "value": 96.5, "unit": "nM"}
    ]}
  ]
}
